pEC50: −log10 of the molar value.
Experiments:
BJ = assay: Cytotoxicity against human BJ cells after 72 hrs by Cell-Titer Glo assay; format: cell-based
[1] = Cytotoxicity against human SEM cells after 72 hrs by Cell-Titer Glo assay; format: functional, cell-based
HEK293 = assay: Cytotoxicity against HEK293 cells after 72 hrs by Cell-Titer Glo assay; format: cell-based; settings: Homo sapiens, HEK293, 72 h
Raji = assay: Cytotoxicity against human Raji cells after 72 hrs by Cell-Titer Glo assay; format: functional, cell-based
[2] = Cytotoxicity against human NALM6 cells after 72 hrs by Cell-Titer Glo assay; format: functional, cell-based; settings: NALM-6, 72 h
HepG2 = assay: Cytotoxicity against human HepG2 cells after 72 hrs by Cell-Titer Glo assay; format: functional, cell-based; settings: HepG2, 72 h
Jurkat = assay: Cytotoxicity against human Jurkat cells after 72 hrs by Cell-Titer Glo assay; format: functional, cell-based

Compound | pEC50 (BJ) | pEC50 [1] | pEC50 (HEK293) | pEC50 (Raji) | pEC50 [2] | pEC50 (HepG2) | pEC50 (Jurkat)
C=C[C@@](C)(/C=C/c1ccc(O)c(CO)c1)CCC=C(C)C | < 4.44 | < 4.44 | < 4.44 | < 4.58 | 4.79 | < 4.28 | < 4.31
C=C[C@@](C)(/C=C/c1ccc(Nc2ccc(OC)cc2)cc1)CCC=C(C)C | < 4.44 | < 4.44 | < 4.44 | < 4.58 | < 4.36 | < 4.28 | 
C=C[C@@](C)(/C=C/c1ccc(-c2cccc(F)c2)cc1)CCC=C(C)C | < 4.44 | < 4.44 | < 4.44 | < 4.58 | < 4.36 | < 4.28 | 
C=C[C@@](C)(/C=C/c1ccc(OC)cc1)CCC=C(C)C | < 4.44 | < 4.44 | < 4.44 | < 4.58 | < 4.36 | < 4.28 | < 4.31
C=C[C@@](C)(/C=C/c1ccc(Nc2ccc(C(F)(F)F)cc2)cc1)CCC=C(C)C | < 4.44 | < 4.44 | < 4.44 | < 4.58 | < 4.36 | < 4.28 | 
C=C[C@@](C)(/C=C/c1ccc(O)c(C=O)c1)CCC=C(C)C | < 4.44 | 5.07 | < 4.44 | < 4.58 | 4.95 | < 4.28 | < 4.31
C=C[C@@](C)(/C=C/c1ccc(O)cc1)CC/C=C(\C)C=O | < 4.44 | < 4.44 | < 4.44 | < 4.58 | 4.90 | < 4.28 | < 4.31
C=C[C@@](C)(/C=C/c1ccc(Nc2ccc(F)cc2)cc1)CCC=C(C)C | < 4.44 | < 4.44 | < 4.44 | < 4.58 | < 4.36 | < 4.28 | 
C=C[C@@](C)(/C=C/c1ccc(O)c(/C=C/c2ccc(Cl)c(Cl)c2)c1)CCC=C(C)C | < 4.89 | < 5.12 | < 4.44 | < 4.58 | 5.12 | < 4.28 | < 4.31
C=C[C@@](C)(/C=C/c1ccc(O)c(/C=C/C(=O)NCc2ccc(C(F)(F)F)cc2)c1)CCC=C(C)C | < 4.44 | < 4.44 | < 4.44 | < 4.58 | < 4.36 | < 4.28 | < 4.31
C=C[C@@](C)(/C=C/c1ccc(Nc2ccc3c(c2)OCO3)cc1)CCC=C(C)C | < 4.44 | < 4.44 | < 4.44 | < 4.58 | < 4.36 | < 4.28 | 
C=C[C@@](C)(/C=C/c1ccc(O)c(/C=C/C(N)=O)c1)CCC=C(C)C | < 4.44 | < 4.44 | < 4.44 | < 4.58 | < 4.36 | < 4.28 | < 4.31
C=C[C@@](C)(/C=C/c1ccc(-c2c(F)c(F)c(F)c(F)c2F)cc1)CCC=C(C)C | < 4.44 | < 4.44 | < 4.44 | < 4.58 | < 4.36 | < 4.28 | 
C=C[C@@](C)(/C=C/c1ccc(O)cc1)CCC(O)C(C)(C)O (stereo partly drawn) | < 4.44 | < 4.44 | < 4.44 | < 4.58 | < 4.36 | < 4.28 | < 4.31
C=C[C@@](C)(/C=C/c1ccc(O)c(/C=C/c2ccc(Cl)cc2)c1)CCC=C(C)C | < 4.44 | < 4.44 | < 4.44 | < 4.58 | < 4.36 | < 4.28 | < 4.31
COc1ccc(/C=C/[C@@](C)(/C=C/c2ccc(O)c(/C=C/C#N)c2)CCC=C(C)C)cc1 | < 4.62 | 5.34 | < 4.44 | < 4.58 | 4.78 | < 4.58 | < 4.31
C=C[C@@](C)(/C=C/c1ccc(Nc2ccc(Cl)c(Cl)c2)cc1)CCC=C(C)C | < 4.44 | < 4.44 | < 4.44 | < 4.58 | < 4.36 | < 4.28 | 
C=C[C@@](C)(/C=C/c1ccc(O)c(/C=C/C#N)c1)CCC=C(C)C | < 4.44 | < 4.44 | < 4.44 | < 4.58 | < 4.36 | < 4.28 | < 4.31
C=C[C@@](C)(/C=C/c1ccc(-c2ccc(Cl)cc2)cc1)CCC=C(C)C | < 4.44 | < 4.44 | < 4.44 | < 4.58 | < 4.36 | < 4.28 | 
C=C[C@@](C)(/C=C/c1ccc(Nc2ccc(OC)c(F)c2)cc1)CCC=C(C)C | < 4.44 | < 4.44 | < 4.44 | < 4.58 | < 4.36 | < 4.28 | 
CC(C)=CCC[C@](C)(/C=C/c1ccc(O)cc1)/C=C/c1cccc(F)c1 | < 4.44 | < 4.44 | < 4.44 | < 4.58 | < 4.36 | < 4.28 | 

Compound | pEC50 (BJ) | pEC50 [1] | pEC50 (HEK293) | pEC50 (Raji) | pEC50 [2] | pEC50 (HepG2) | pEC50 (Jurkat)
C=C[C@@](C)(/C=C/c1ccc(Nc2cc(F)c(F)c(F)c2)cc1)CCC=C(C)C | < 4.44 | < 4.44 | < 4.44 | < 4.58 | < 4.36 | < 4.28 | 
C=C[C@@](C)(/C=C/c1ccc(Nc2ccccc2)cc1)CCC=C(C)C | < 4.44 | < 4.44 | < 4.44 | < 4.58 | < 4.36 | < 4.28 | 
C=C[C@@](C)(/C=C/c1ccc(Nc2cc(F)cc(F)c2)cc1)CCC=C(C)C | < 4.44 | < 4.44 | < 4.44 | < 4.58 | < 4.36 | < 4.28 | 
CC(C)=CCC[C@](C)(/C=C/c1ccc(O)cc1)/C=C/c1ccc(C#N)cc1 | < 4.44 | < 4.44 | < 4.44 | < 4.58 | < 4.36 | < 4.28 | 
C=C[C@@](C)(/C=C/c1ccc(-c2ccccc2)cc1)CCC=C(C)C | < 4.44 | < 4.44 | < 4.44 | < 4.58 | < 4.36 | < 4.28 | 
C=C[C@@](C)(/C=C/c1ccc(Nc2ccc(OC(F)(F)F)cc2)cc1)CCC=C(C)C | < 4.44 | < 4.44 | < 4.44 | < 4.58 | < 4.36 | < 4.28 | 
C=C[C@@](C)(/C=C/c1ccc(Nc2cc(C(F)(F)F)cc(C(F)(F)F)c2)cc1)CCC=C(C)C | < 4.44 | < 4.44 | < 4.44 | < 4.58 | < 4.36 | < 4.28 | 
C=C[C@@](C)(/C=C/c1ccc(-c2ccc(Cl)c(Cl)c2)cc1)CCC=C(C)C | < 4.44 | < 4.44 | < 4.44 | < 4.58 | < 4.36 | < 4.28 | 
CC(C)=CCC[C@](C)(/C=C/c1ccc(O)cc1)/C=C/c1cccc(Cl)c1 | < 4.44 | < 4.44 | < 4.44 | < 4.58 | < 4.36 | < 4.28 | 
CC(C)=CCC[C@@](C)(/C=C/c1ccc(C)cc1)/C=C/c1ccc(O)cc1 | < 4.44 | < 4.44 | < 4.44 | < 4.58 | < 4.36 | < 4.28 | 
C=C[C@@](C)(/C=C/c1ccc(-c2cccc(Br)c2)cc1)CCC=C(C)C | < 4.44 | < 4.44 | < 4.44 | < 4.58 | < 4.36 | < 4.28 | 
C=C[C@@](C)(/C=C/c1ccc(Nc2cccc(OC(F)(F)F)c2)cc1)CCC=C(C)C | < 4.44 | < 4.44 | < 4.44 | < 4.58 | < 4.36 | < 4.28 | 
CC(C)=CCC[C@@](C)(/C=C/c1ccccc1)/C=C/c1ccc(O)cc1 | < 4.44 | < 4.44 | < 4.44 | < 4.58 | < 4.36 | < 4.28 | 
C=C[C@@](C)(/C=C/c1ccc(Nc2ccc(F)c(F)c2)cc1)CCC=C(C)C | < 4.44 | < 4.44 | < 4.44 | < 4.58 | < 4.36 | < 4.28 | 
C=C[C@@](C)(/C=C/c1ccc(Nc2cc(F)c(F)cc2F)cc1)CCC=C(C)C | < 4.44 | < 4.44 | < 4.44 | < 4.58 | < 4.36 | < 4.28 | 
C=C[C@@](C)(/C=C/c1ccc(Nc2cccc(C(F)(F)F)c2)cc1)CCC=C(C)C | < 4.44 | < 4.44 | < 4.44 | < 4.58 | < 4.36 | < 4.28 | 
C=C[C@@](C)(/C=C/c1ccc(Nc2c(F)cc(F)cc2F)cc1)CCC=C(C)C | < 4.44 | < 4.44 | < 4.44 | < 4.58 | < 4.36 | < 4.28 | 
C=C[C@@](C)(/C=C/c1ccc(Nc2ccc(Cl)cc2)cc1)CCC=C(C)C | < 4.44 | < 4.44 | < 4.44 | < 4.58 | < 4.36 | < 4.28 | 
C=C[C@@](C)(/C=C/c1ccc(Nc2ccc(OC)c(OC)c2)cc1)CCC=C(C)C | < 4.44 | < 4.44 | < 4.44 | < 4.58 | < 4.36 | < 4.28 | 
C=C[C@@](C)(/C=C/c1ccc(Nc2ccc(Cl)c(F)c2)cc1)CCC=C(C)C | < 4.44 | < 4.44 | < 4.44 | < 4.58 | < 4.36 | < 4.28 | 
C=C[C@@](C)(/C=C/c1ccc(-c2ccc(F)cc2)cc1)CCC=C(C)C | < 4.44 | < 4.44 | < 4.44 | < 4.58 | < 4.36 | < 4.28 | 

Source: ChEMBL document CHEMBL3779792, “Anti-proliferative evaluation of monoterpene derivatives against leukemia” (Eur J Med Chem, 2016)
